Measurements published in paper PMC10959927, “Platinum iodido drugs show potential anti-tumor activity, affecting cancer cell metabolism and inducing ROS and senescence in gastrointestinal cancer cells” (Communications Biology, 2024).
Several values for one entry are separate records, joined by “and”; a condition that tells them apart may be missing. Equal values may be shown once.

Columns and labels:
MKN45 cells = assay: SA-β-Gal activity, CellEvent Senescence Green flow cytometry;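 also: IC50 concentration of each compound relative to untreated control set as 1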; assay type: cell-based, human; details: Fig. 3A, replicate values
Experimental: (§1) SA-β-Gal activity was measured following two different approaches. (i) AGS, MKN45 and PANC1 cells (5 × 10^4) were seeded in 24-multiwell dishes and incubated overnight. […] For flow cytometry cell senescence detection, cells were tripsinized, fixed for 15 min with PFA 4% and stained with the CellEvent Senescense Green Flow Cytometry Assay Kit (C10840, Invitrogen) according to manufacturer’s instructions. CellEvent Senescense Green Probe was used at a 1:500 dilution and fluorescence was detected using the filter (Ex488nm/Em530/30) BL1 with a 4-laser Attune NxT Acoustic Cytometer (Thermo Fisher Scientific). […] After 3 h, the treatments were removed, new supplemented medium was added, and cells were incubated for an additional 24 h. Finally, SA-β-Gal staining was performed using the Senescence Cells Histochemical Staining Kit (CS0030-1KT) according to the manufacturer’s instructions.

PANC1 cells [1] = assay: as above; assay type: cell-based, human; details: Fig. 3A, replicate values
Experimental: as §1

AGS cells [2] = assay: as above; assay type: cell-based, human; details: Fig. 3A, replicate values
Experimental: as §1

CC2509 fibroblasts = assay: Cell viability, crystal violet staining, non-tumoral cells; details: CC2509, 48 h
Experimental: (§2) Cell viability was assessed using a crystal violet-based staining method. […] The cells (2 × 10^5) were seeded in 24-multiwell dishes in 0.5 mL of complete medium and incubated overnight. […] After 48 h, cells were fixed with 1% glutaraldehyde (20–30 min), washed with distilled water, and stained with 0.1% crystal violet. […] IC50 were calculated by using GraphPad Prism (version 8.0). Nonlinear regression was used to fit the data to the log (inhibitor) versus response (variable slope).

HPDE cells = assay: as above; details: for percentage of viable cells: 48 h
Experimental: as §2

[3] = tested on: telomeres, 36B4, MT-COX1, MT-CYB DNA of PANC1 cells; assay: Oxidized bases (FPG-sensitive lesions) in genome regions by qPCR; assay type: cell-based, human; details: PANC1, IC50 concentration 24 h, normalized to control, single replicates
Source text: (§3) Total cellular DNA from MKN45 and PANC1 cells was extracted using an NZY Tissue gDNA Isolation Kit (Nzytech, MB13503) following the manufacturer’s instructions and quantified using a Nanodrop (Nanodrop Spectrophotometer ND-1000, ThermoFisher Scientific, Wilmington, DE, USA). We adapted the procedure described by O’Callaghan et al.[76] to measure oxidative DNA damage at telomeres, 36B4 genomic region and at mitochondrial DNA (MT-COX1, MT-CYB). This is a qPCR method based on differences in PCR kinetics between DNA template digested by Formamidopyrimidine DNA Glycosylase (FPG, Cat no. M0240S) and undigested DNA. This enzyme recognizes and cuts 8-oxoguanine, producing apurinic sites that are converted into single-strand breaks by its apurinic sites lyase activity. These single-strand breaks inhibit the PCR, thus, the ΔCT after digesting DNA by […] (Ct digested–Ct undigested) is proportional to the oxidative damage in the amplified region. DNA was incubated with 8 Units of FPG during 3 h in FPG buffer (NEB1, M0240S). The reaction was stopped by incubation at 95 °C for 5 min. qPCR analysis was performed on 40 ng of digested or undigested genomic DNA. Each qPCR was performed in triplicate including no-template controls in a StepOne Real‐time PCR System (Applied Biosystems, 4376357). Target genes (Table 3) were amplified using SYBR Green (Applied Biosystems, MB345). Thermal cycling of the qPCR reaction was initiated with a denaturation step at 95 °C for 10 min. The process consisted of 40 cycles (denaturation at 95 °C for 15 sec, annealing at 60 °C for 30 sec, and elongation at 72 °C for 30 sec). This experiment was repeated three independent times with 10–12 replicates.

[4] = tested on: telomeres, 36B4, MT-COX1, MT-CYB DNA of MKN45 cells; assay: as above; assay type: cell-based, human; details: MKN45, IC50 concentration 24 h, normalized to control, single replicates
Source text: as §3

PANC1 cells [5] = assay: Immunofluorescence of γ-H2AX and 53BP1 foci; assay type: cell-based, human; details: for foci/cell, share of cells in class (Suma 100) / foci/cell, number of cells in class: PANC1, Fig. 3B; for foci/cell, number of cells in class: cell count
Experimental: (§4) Cells (7 × 10^4) were seeded on 20 mm coverslips. […] Coverslips were incubated for 1 h with the primary antibody (Cell Signaling: H2AX Ser139 (#2595) and 53BP1 (#4937)) at room temperature, followed by a 1 h incubation with the appropriate secondary antibody. DNA was stained with DAPI. Fluorescence microscopy was performed using a NIKON Eclipse 90i. The image analysis was performed using the software program Nikon NIS-Elements and Image J.

AGS cells [6] = assay: Immunofluorescence of γ-H2AX and 53BP1 foci; assay type: cell-based, human; details: for foci/cell, share of cells in class (Suma 100) / foci/cell, number of cells in class: Fig. 3B; for foci/cell, number of cells in class: cell count
Experimental: as §4

[7] = read-out: IC50 concentration (± SD) at 48 h in non-tumoral cell lines
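For Fold change % Senescence in this document: IC50 concentration of each compound relative to untreated control set as 1.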

Compound: CC(C)[NH][Pt@SP3]([I])([I])[NH]C(C)C [I5, trans-[PtI2(isopropylamine)2]]
- Fold change % Senescence (MKN45 cells): 6.84 fold change and 6.77 fold change and 7.76 fold change
- Fold change % Senescence (PANC1 cells [1]): 2.58 fold change and 1.93 fold change and 2.21 fold change
- Fold change % Senescence (AGS cells [2]): 2.4 fold change and 2.38 fold change and 2.1 fold change
- percentage of viable cells (CC2509 fibroblasts; dose 2.5 µM): 100.938% and 100.862% and 91.106%
- percentage of viable cells (CC2509 fibroblasts; dose 5 µM): 83.0553% and 85.5747% and 89.9658%
- percentage of viable cells (CC2509 fibroblasts; dose 10 µM): 93.9868% and 89.8276% and 94.7548%
- percentage of viable cells (CC2509 fibroblasts; dose 25 µM): 85.5057% and 58.6494% and 84.1505%
- percentage of viable cells (CC2509 fibroblasts; dose 50 µM): 74.4584% and 49.6552% and 58.3178%
- percentage of viable cells (CC2509 fibroblasts; dose 100 µM): 38.4658% and 29.1313% and 33.9772%
- IC50 (CC2509 fibroblasts; [7]): 74.1 ± 5.42 µM
- percentage of viable cells (HPDE cells; dose 2.5 µM): 94.0083% and 103.787% and 91.0112%
- percentage of viable cells (HPDE cells; dose 5 µM): 95.3512% and 98.9765% and 89.3059%
- percentage of viable cells (HPDE cells; dose 10 µM): 88.9979% and 69.4985% and 69.7172%
- percentage of viable cells (HPDE cells; dose 25 µM): 58.8843% and 42.8352% and 30.2314%
- percentage of viable cells (HPDE cells; dose 50 µM): 20.4029% and 27.175% and 15.1157%
- IC50 (HPDE cells; [7]): 26 µM and 25 µM and 26.8 µM
- TEL (Fold change - ΔCt TEL), oxidative DNA damage ([3]; FPG-digested vs undigested): -0.2993 and -0.2888 and -0.1094 and 0.05784 and 0.7794 and 0.6409 and 1.117 and 1.284 and 1.153 and 1.2407
- 36B4 (Fold change - ΔCt 36B4), oxidative DNA damage [3]: 1.4221 and 1.29 and 0.7644 and 2.073 and 2.467 and 2.333 and 2.539 and 4.489 and 2.165 and 1.996 and 1.737
- MT-COX1 (Fold change - ΔCt MT-COX1), oxidative DNA damage [3]: 1.203 and 1.298 and 1.208 and 1.316 and 1.536 and 0.9948 and 1.085 and 1.109 and 1.083 and 1.329
- MT-CYB (Fold change - ΔCt MT-CYB), oxidative DNA damage [3]: 1.015 and 1.063 and 1.122 and 1.165 and 2.0159 and 1.972 and 2.298 and 2.283 and 3.887 and 4.47 and 3.714 and 6.805
- TEL (Fold change - ΔCt TEL), oxidative DNA damage ([4]; FPG-digested vs undigested): 0.4976 and 1.204 and 0.863 and 1.649 and 1.472 and 1.233 and 1.0991 and 1.079 and 1.087 and 1.22
- 36B4 (Fold change - ΔCt 36B4), oxidative DNA damage [4]: 1.703 and 1.211 and 0.8373 and 1.374 and 1.447 and 1.358 and 1.5791 and 1.8961 and 1.25 and 1.252 and 1.777
- MT-COX1 (Fold change - ΔCt MT-COX1), oxidative DNA damage [4]: 1.17 and 1.1588 and 1.212 and 1.316 and 0.8751 and 0.7769 and 2.591 and 2.527 and 2.762 and 3.255
- MT-CYB (Fold change - ΔCt MT-CYB), oxidative DNA damage [4]: 1.053 and 0.8867 and 1.024 and 1.423 and 1.446 and 1.223 and 1.361 and 1.391 and 5.526 and 1.559 and 1.507 and 3.466
- foci/cell: number of cells with 16-30 foci (PANC1 cells [5]; PANC1, Fig. S4B, cell counts): 11
- foci/cell: number of cells with 31-45 foci (PANC1 cells [5]; PANC1, Fig. S4B, cell counts): 3
- foci/cell: number of cells with 46-60 foci (PANC1 cells [5]; PANC1, Fig. S4B, cell counts): 1
- foci/cell: number of cells with <15 foci (PANC1 cells [5]; PANC1, Fig. S4B, cell counts): 18
- foci/cell: number of cells with >61 foci (PANC1 cells [5]; PANC1, Fig. S4B, cell counts): 0
- foci/cell: share of cells with 16-30 foci (Suma 100) (PANC1 cells [5]; PANC1, Fig. S4B, share of N): 33.3333
- foci/cell: share of cells with 31-45 foci (Suma 100) (PANC1 cells [5]; PANC1, Fig. S4B, share of N): 9.091
- foci/cell: share of cells with 46-60 foci (Suma 100) (PANC1 cells [5]; PANC1, Fig. S4B, share of N): 3.0303
- foci/cell: share of cells with <15 foci (Suma 100) (PANC1 cells [5]; PANC1, Fig. S4B, share of N): 54.5455
- foci/cell: share of cells with >61 foci (Suma 100) (PANC1 cells [5]; PANC1, Fig. S4B, share of N): 0
- foci/cell, share of cells in class (Suma 100) (PANC1 cells [5]; class 16-30 foci/cell): 26.9231
- foci/cell, number of cells in class (PANC1 cells [5]; class 16-30 foci/cell): 7
- foci/cell, share of cells in class (Suma 100) (PANC1 cells [5]; class 31-45 foci/cell): 26.9231
- foci/cell, number of cells in class (PANC1 cells [5]; class 31-45 foci/cell): 7
- foci/cell, share of cells in class (Suma 100) (PANC1 cells [5]; class 46-60 foci/cell): 15.3846
- foci/cell, number of cells in class (PANC1 cells [5]; class 46-60 foci/cell): 4
- foci/cell, share of cells in class (Suma 100) (PANC1 cells [5]; class <15 foci/cell): 3.846
- foci/cell, number of cells in class (PANC1 cells [5]; class <15 foci/cell): 1
- foci/cell, share of cells in class (Suma 100) (PANC1 cells [5]; class >61 foci/cell): 26.9231
- foci/cell, number of cells in class (PANC1 cells [5]; class >61 foci/cell): 7
- foci/cell, share of cells in class (Suma 100) (AGS cells [6]; class 16-30 foci/cell): 32.2835
- foci/cell, number of cells in class (AGS cells [6]; class 16-30 foci/cell): 41
- foci/cell, share of cells in class (Suma 100) (AGS cells [6]; class 31-45 foci/cell): 14.1732
- foci/cell, number of cells in class (AGS cells [6]; class 31-45 foci/cell): 18
- foci/cell, share of cells in class (Suma 100) (AGS cells [6]; class 46-60 foci/cell): 7.874
- foci/cell, number of cells in class (AGS cells [6]; class 46-60 foci/cell): 10
- foci/cell, share of cells in class (Suma 100) (AGS cells [6]; class <15 foci/cell): 37.0079
- foci/cell, number of cells in class (AGS cells [6]; class <15 foci/cell): 47
- foci/cell, share of cells in class (Suma 100) (AGS cells [6]; class >61 foci/cell): 8.661
- foci/cell, number of cells in class (AGS cells [6]; class >61 foci/cell): 11
- foci/cell: number of cells with 16-30 foci (AGS cells [6]; Fig. S4B, cell counts): 24
- foci/cell: number of cells with 31-45 foci (AGS cells [6]; Fig. S4B, cell counts): 5
- foci/cell: number of cells with 46-60 foci (AGS cells [6]; Fig. S4B, cell counts): 2
- foci/cell: number of cells with <15 foci (AGS cells [6]; Fig. S4B, cell counts): 37
- foci/cell: number of cells with >61 foci (AGS cells [6]; Fig. S4B, cell counts): 0
- foci/cell: share of cells with 16-30 foci (Suma 100) (AGS cells [6]; Fig. S4B, share of N): 35.2941
- foci/cell: share of cells with 31-45 foci (Suma 100) (AGS cells [6]; Fig. S4B, share of N): 7.353
- foci/cell: share of cells with 46-60 foci (Suma 100) (AGS cells [6]; Fig. S4B, share of N): 2.941
- foci/cell: share of cells with <15 foci (Suma 100) (AGS cells [6]; Fig. S4B, share of N): 54.4118
- foci/cell: share of cells with >61 foci (Suma 100) (AGS cells [6]; Fig. S4B, share of N): 0
